Values quoted from earlier work, collected in patent EP2662403B1, “Stabilizing resin formulation of halogen-containing polymers” (Reagens S.p.A., priority 2012, dated 2013).
Where two headings read alike, the source gives them in different places.

Details: indication of the basicity of the polyalkylpiperidine in the formulation, no method or source given

In the case of CCCCN(c1nc(NCCCN(CCN(CCCNc2nc(N(CCCC)C3CC(C)(C)N(C)C(C)(C)C3)nc(N(CCCC)C3CC(C)(C)N(C)C(C)(C)C3)n2)c2nc(N(CCCC)C3CC(C)(C)N(C)C(C)(C)C3)nc(N(CCCC)C3CC(C)(C)N(C)C(C)(C)C3)n2)c2nc(N(CCCC)C3CC(C)(C)N(C)C(C)(C)C3)nc(N(CCCC)C3CC(C)(C)N(C)C(C)(C)C3)n2)nc(N(CCCC)C2CC(C)(C)N(C)C(C)(C)C2)n1)C1CC(C)(C)N(C)C(C)(C)C1 [Chimassorb 119], the pKb (Table 11) is listed as 5.5-8.5.
In the case of CN1C(C)(C)CC(OC(=O)CCCCCCCCC(=O)OC2CC(C)(C)N(C)C(C)(C)C2)CC1(C)C [Tinuvin 765, bis(1,2,2,6,6-pentamethyl-4-piperidyl)sebacate], the pKb (Table 11) is listed as 5.5-8.5.
In the case of CC1(C)CC(OC(=O)CCCCCCCCC(=O)OC2CC(C)(C)NC(C)(C)C2)CC(C)(C)N1 [Tinuvin 770, bis(2,2,6,6,-tetramethyl-4-piperidyl)sebacate], the pKb (Table 9) is given as 4.3-7.4, the pKb (Table 10) is given as 4.3-7.4 and the pKb (Table 11) is given as 4.3-7.4. For the same molecule, the pKb (Table 12) was 4.3-7.4.
